Experimental findings from patent US11034650B2, “Compounds useful for treating a Mannheimia haemolytica or Histophilus somni infection” (Intervet Inc., priority 2016, dated 2021) are described below.

Common to all, as to format: cell-based
Assay [1] concerns Mannheimia haemolytica MH 6357 (M7/2, reference strain, cattle infection strain). Briefly: MIC, broth-microdilution (CLSI VET01-A4), strain MH 6357. The conditions noted are these: Mannheimia haemolytica strain MH 6357, broth-microdilution; unit assumed. In outline: (§1)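 Compounds were serially diluted twofold in microdilution trays. Growth was judged by eye, and the MIC was the lowest concentration showing no turbidity. Results were interpreted per CLSI VET01-S3.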

Assay [2] concerns Mannheimia haemolytica MH 6374 (ATCC 33396, reference strain). Put plainly: MIC, broth-microdilution (CLSI VET01-A4), strain MH 6374. The conditions noted are these: Mannheimia haemolytica strain MH 6374, broth-microdilution; unit assumed. In outline:
as §1

Assay [3] concerns Mannheimia haemolytica MH 10720 (154, BRD field isolate). Briefly: MIC, broth-microdilution (CLSI VET01-A4), strain MH 10720. To be noted: Mannheimia haemolytica strain MH 10720, broth-microdilution; unit assumed. The essentials: as §1
In general terms: In broth dilution the organism is exposed to a series of concentrations in liquid medium.

Assay [4] deals with Mannheimia haemolytica MH 12587 (1071, BRD field isolate, macrolide-resistance: erm+, E+). Put plainly: MIC, broth-microdilution (CLSI VET01-A4), strain MH 12587. To be noted: Mannheimia haemolytica strain MH 12587, broth-microdilution; unit assumed. The essentials: as §1
The test system of assay [5] is Mannheimia haemolytica MH 13065 (XB0446-6003.9, BRD field isolate). Briefly: MIC, broth-microdilution (CLSI VET01-A4), strain MH 13065. The conditions noted are these: Mannheimia haemolytica strain MH 13065, broth-microdilution; unit assumed. In outline:
as §1

Assay [6] has as its system Mannheimia haemolytica MH 13093 (XB0472-6014.1, BRD field isolate). Put plainly: MIC, broth-microdilution (CLSI VET01-A4), strain MH 13093. To be noted: Mannheimia haemolytica strain MH 13093, broth-microdilution; unit assumed. In outline:
as §1

The test system of assay [7] is Pasteurella multocida PM 6267 (P 2225 (L386), reference strain, mouse infection strain). Put plainly: MIC, broth-microdilution (CLSI VET01-A4), strain PM 6267. To be noted: Pasteurella multocida strain PM 6267, broth-microdilution; unit assumed. The essentials: as §1
The subject of assay [8] is Pasteurella multocida PM 6391 (ATCC 43137, reference strain). Briefly: MIC, broth-microdilution (CLSI VET01-A4), strain PM 6391. The conditions noted are these: Pasteurella multocida strain PM 6391, broth-microdilution; unit assumed. The essentials:
as §1

Assay [9] has as its system Pasteurella multocida PM 10775 (080130003051, BRD field isolate). Put plainly: MIC, broth-microdilution (CLSI VET01-A4), strain PM 10775. The conditions noted are these: Pasteurella multocida strain PM 10775, broth-microdilution; unit assumed. The essentials: as §1
For assay [10], the system named is Pasteurella multocida PM 12080 (IV102277-0093, BRD field isolate). Put plainly: MIC, broth-microdilution (CLSI VET01-A4), strain PM 12080. To be noted: Pasteurella multocida strain PM 12080, broth-microdilution; unit assumed. In outline: as §1

Values after ≈ are worked out from the molar mass of the structure shown.

The molecule `COc1ccc(CNCc2ccc(C#Cc3ccc(C(=O)N[C@H](C(=O)NO)C(C)(C)S(C)(=O)=O)cc3)s2)cc1` [Compound 316] registered an MIC MH 6357 in assay [1] of no more than 0.1 µg/mL. In assay [2], this molecule showed an MIC MH 6374 of 0.2 µg/mL (≈ 0.351 µM). The molecule also showed an MIC MH 10720 in [3] of no more than 0.1 µg/mL. The molecule also returned an MIC MH 12587 in assay [4] of 0.8 µg/mL (≈ 1.4 µM). Moreover, in [5], the MIC MH 13065 worked out at 0.2 µg/mL (≈ 0.351 µM). Also, in assay [6], the MIC MH 13093 came to 0.4 µg/mL (≈ 0.702 µM). This molecule also yielded an MIC PM 6267 in assay [7] of 0.2 µg/mL (≈ 0.351 µM). Moreover, the MIC PM 6391 in assay [8] is no more than 0.1 µg/mL. This molecule also gave an MIC PM 10775 in assay [9] of no more than 0.1 µg/mL. Moreover, in assay [10], the MIC PM 12080 is no more than 0.1 µg/mL.

Take `CC(C)([C@H](NC(=O)c1ccc(C#Cc2ccc(CNCc3ccncc3)s2)cc1)C(=O)NO)S(C)(=O)=O` [Compound 317]: the MIC MH 6357 in assay [1] worked out at 0.2 µg/mL (≈ 0.37 µM). In assay [2], this molecule returned an MIC MH 6374 of 0.4 µg/mL (≈ 0.74 µM). Moreover, in assay [3], the MIC MH 10720 was no more than 0.1 µg/mL. The MIC MH 12587 in assay [4] was 0.8 µg/mL (≈ 1.48 µM). For the same molecule, in assay [5], the MIC MH 13065 came out at 0.4 µg/mL (≈ 0.74 µM). The MIC MH 13093 in assay [6] worked out at 0.4 µg/mL (≈ 0.74 µM). The MIC PM 6267 in [7] was 0.2 µg/mL (≈ 0.37 µM). For the same molecule, in assay [8], the MIC PM 6391 was no more than 0.1 µg/mL. The molecule also returned an MIC PM 10775 in assay [9] of no more than 0.1 µg/mL. This molecule showed an MIC PM 12080 in assay [10] of no more than 0.1 µg/mL.

In assay [1], `CC(C)([C@H](NC(=O)c1ccc(C#Cc2ccc(CNCC#N)s2)cc1)C(=O)NO)S(C)(=O)=O` [Compound 318] displayed an MIC MH 6357 of 0.4 µg/mL (≈ 0.819 µM). This molecule also returned an MIC MH 6374 in assay [2] of 0.8 µg/mL (≈ 1.64 µM). This molecule yielded an MIC MH 10720 in assay [3] of no more than 0.1 µg/mL. In [4], this molecule registered an MIC MH 12587 of 1.6 µg/mL (≈ 3.27 µM). In assay [5], this molecule registered an MIC MH 13065 of 0.8 µg/mL (≈ 1.64 µM). The MIC MH 13093 in assay [6] is 1.6 µg/mL (≈ 3.27 µM). In assay [7], this molecule returned an MIC PM 6267 of 0.8 µg/mL (≈ 1.64 µM). The molecule further gave an MIC PM 6391 in assay [8] of 0.8 µg/mL (≈ 1.64 µM). The MIC PM 10775 in [9] was no more than 0.1 µg/mL. The same molecule came in with an MIC PM 12080 in [10] of 0.2 µg/mL (≈ 0.409 µM).

In the case of `CC(C)([C@H](NC(=O)c1ccc(C#Cc2ccc(CNCc3ccccn3)s2)cc1)C(=O)NO)S(C)(=O)=O` [Compound 320], in [1], the MIC MH 6357 amounted to 0.2 µg/mL (≈ 0.37 µM). The MIC MH 6374 in assay [2] was no more than 0.1 µg/mL. In [3], this molecule registered an MIC MH 10720 of no more than 0.1 µg/mL. This molecule also displayed an MIC MH 12587 in assay [4] of 0.8 µg/mL (≈ 1.48 µM). Also, the MIC MH 13065 in [5] came out at 0.2 µg/mL (≈ 0.37 µM). In assay [6], the MIC MH 13093 was found to be 0.4 µg/mL (≈ 0.74 µM). Further, in assay [7], the MIC PM 6267 was found to be 0.2 µg/mL (≈ 0.37 µM). Besides, the MIC PM 6391 in assay [8] is no more than 0.1 µg/mL. This molecule returned an MIC PM 10775 in [9] of no more than 0.1 µg/mL. Besides, in assay [10], the MIC PM 12080 was no more than 0.1 µg/mL.

In [1], `CC(C)([C@H](NC(=O)c1ccc(C#Cc2ccc(CNCc3ccco3)s2)cc1)C(=O)NO)S(C)(=O)=O` [Compound 321] came in with an MIC MH 6357 of no more than 0.1 µg/mL. The molecule further showed an MIC MH 6374 in assay [2] of no more than 0.1 µg/mL. For the same molecule, in assay [3], the MIC MH 10720 is no more than 0.1 µg/mL. The MIC MH 12587 in [4] came to 0.4 µg/mL (≈ 0.755 µM). Moreover, the MIC MH 13065 in [5] was determined as 0.2 µg/mL (≈ 0.378 µM). In assay [6], this molecule showed an MIC MH 13093 of 0.2 µg/mL (≈ 0.378 µM). In assay [7], the MIC PM 6267 is no more than 0.1 µg/mL. In assay [8], this molecule displayed an MIC PM 6391 of no more than 0.1 µg/mL. Further, the MIC PM 10775 in assay [9] is no more than 0.1 µg/mL. In assay [10], this molecule registered an MIC PM 12080 of no more than 0.1 µg/mL.

`CC(C)([C@H](NC(=O)c1ccc(C#Cc2ccc(CNCc3ncccn3)s2)cc1)C(=O)NO)S(C)(=O)=O` [Compound 322]: the MIC MH 6357 in [1] came out at 0.4 µg/mL (≈ 0.738 µM). Further, the MIC MH 6374 in assay [2] was determined as 1.6 µg/mL (≈ 2.95 µM). The molecule also displayed an MIC MH 10720 in [3] of no more than 0.1 µg/mL. For the same molecule, the MIC MH 12587 in assay [4] worked out at 1.6 µg/mL (≈ 2.95 µM). In assay [5], the MIC MH 13065 was found to be 0.8 µg/mL (≈ 1.48 µM). The molecule also returned an MIC MH 13093 in assay [6] of 0.8 µg/mL (≈ 1.48 µM). Moreover, the MIC PM 6267 in assay [7] came to 0.4 µg/mL (≈ 0.738 µM). Further, in assay [8], the MIC PM 6391 came to 0.2 µg/mL (≈ 0.369 µM). Moreover, the MIC PM 10775 in assay [9] was no more than 0.1 µg/mL. In assay [10], the MIC PM 12080 is no more than 0.1 µg/mL.

`Cc1cnc(CNCc2ccc(C#Cc3ccc(C(=O)N[C@H](C(=O)NO)C(C)(C)S(C)(=O)=O)cc3)s2)o1` [Compound 323]: in assay [1], the MIC MH 6357 was 0.2 µg/mL (≈ 0.367 µM). This molecule returned an MIC MH 6374 in [2] of 0.2 µg/mL (≈ 0.367 µM). The molecule also had an MIC MH 10720 in [3] of no more than 0.1 µg/mL. Moreover, in assay [4], the MIC MH 12587 worked out at 0.8 µg/mL (≈ 1.47 µM). For the same molecule, the MIC MH 13065 in [5] is 0.4 µg/mL (≈ 0.734 µM). This molecule came in with an MIC MH 13093 in [6] of 0.8 µg/mL (≈ 1.47 µM). In [7], this molecule displayed an MIC PM 6267 of 0.2 µg/mL (≈ 0.367 µM). The molecule also came in with an MIC PM 6391 in [8] of no more than 0.1 µg/mL. In assay [9], this molecule showed an MIC PM 10775 of no more than 0.1 µg/mL. Further, the MIC PM 12080 in assay [10] is no more than 0.1 µg/mL.

In [1], `CC(C)(O)[C@H](NC(=O)c1ccc(C#Cc2ccc(CNC3CC3)nc2)cc1)C(=O)NO` [Compound 324] had an MIC MH 6357 of 0.4 µg/mL (≈ 0.947 µM). The MIC MH 6374 in [2] was determined as 0.8 µg/mL (≈ 1.89 µM). Besides, the MIC MH 10720 in assay [3] was no more than 0.1 µg/mL. Further, in assay [4], the MIC MH 12587 came out at 1.6 µg/mL (≈ 3.79 µM). The MIC MH 13065 in [5] stood at 0.8 µg/mL (≈ 1.89 µM). Moreover, the MIC MH 13093 in assay [6] stood at 1.6 µg/mL (≈ 3.79 µM). For the same molecule, the MIC PM 6267 in assay [7] worked out at 0.4 µg/mL (≈ 0.947 µM). In assay [8], this molecule gave an MIC PM 6391 of 0.4 µg/mL (≈ 0.947 µM). The MIC PM 10775 in assay [9] is no more than 0.1 µg/mL. The MIC PM 12080 in assay [10] is 0.2 µg/mL (≈ 0.473 µM).
